Reference: patent publication US20090247548A1, “PYRROLOPYRIMIDINE DERIVATIVES FOR TREATING PROLIFERATIVE DISEASES” (priority 2004, published 2009)

C[C@@H](Nc1ncnc2[nH]c(-c3ccc(CN4CCNCC4)cc3)cc12)c1ccccc1 [Example 1, ((R)-1-Phenyl-ethyl)-[6-(4-piperazin-1-ylmethyl-phenyl)-7H-pyrrolo[2,3-d]pyrimidin-4-yl]-amine]
melting point: 240 to 242 °C
